US20260001847A1, “HERBICIDAL QUINOLONE DERIVATIVES” (SYNGENTA CROP PROTECTION AG, priority 2022, published 2026)

Assays:
Type in all cases: in vivo
Details in all cases: 1000 g/ha, evaluated after 13 days
[1] = test system: Abutilon theophrasti (ABUTH); test: Pre-emergence Test
[2] = test system: Ipomoea hederacea (IPOHE); test: Pre-emergence Test
[3] = test system: Setaria faberi (SETFA); test: Pre-emergence Test
[4] = test system: Echinochloa crus-galli (ECHCG); test: Pre-emergence Test
[5] = test system: Zea mays (ZEAMX); test: Pre-emergence Test
[6] = test system: Amaranthus retoflexus (AMARE); test: Post-emergence Test
Protocol: (§1) Seeds of a variety of test species are sown in standard soil in pots (Abutilon theophrasti (ABUTH), Ipomoea hederacea (IPOHE). Setaria faberi (SETFA), Echinochloa crus-galli (ECHCG), Zea mays (ZEAMX), Amaranthus retoflexus (AMARE), Solanum nigrum (SOLNI), Lolium perenne (LOLPE), Amaranthus palmeri (AMAPA)). After 8 days cultivation under controlled conditions in a glasshouse (at 24° C./16° C., day/night-; 14 hours light; 65% humidity), the plants are sprayed with an aqueous spray solution derived from the formulation of the technical active ingredient in acetone/water (50:50) solution containing 0.5% Tween 20 (polyoxyethylene sorbitan monolaurate, CAS RN 9005-64-5). Compounds are applied at 1000 g/ha unless otherwise stated. The test plants are then grown in a glasshouse under controlled conditions in a glasshouse (at 24° C./16° C., day/night; 14 hours light; 65% humidity) and watered twice daily. After 13 days the test is evaluated for the percentage damage caused to the plant. The biological activities are shown in the following table on a five-point scale (5=81-100%; 4=61-80%; 3=41-60%; 2=21-40%; 1=0-20%; -=not tested).

[7] = test system: Echinochloa crus-galli (ECHCG); test: Post-emergence Test
Protocol: as §1

[8] = test system: Ipomoea hederacea (IPOHE); test: Post-emergence Test
Protocol: as §1

[9] = test system: Setaria faberi (SETFA); test: Post-emergence Test
Protocol: as §1

[10] = test system: Zea mays (ZEAMX); test: Post-emergence Test
Protocol: as §1

[11] = test system: Amaranthus retoflexus (AMARE); test: Pre-emergence Test
[12] = test system: Solanum nigrum (SOLNI); test: Pre-emergence Test
[13] = test system: Lolium perenne (LOLPE); test: Pre-emergence Test
[14] = test system: Abutilon theophrasti (ABUTH); test: Post-emergence Test
Protocol: as §1

[15] = test system: Lolium perenne (LOLPE); test: Post-emergence Test
Protocol: as §1

[16] = test system: Solanum nigrum (SOLNI); test: Post-emergence Test
Protocol: as §1

[17] = test system: Amaranthus palmeri (AMAPA); test: Pre-emergence Test
[18] = test system: Amaranthus palmeri (AMAPA); test: Post-emergence Test
Protocol: as §1

Row | Compound | percentage damage caused to the plant, ABUTH [1] | percentage damage caused to the plant, IPOHE [2] | percentage damage caused to the plant, SETFA [3] | percentage damage caused to the plant, ECHCG [4] | percentage damage caused to the plant, ZEAMX [5] | percentage damage caused to the plant, AMARE [6] | percentage damage caused to the plant, ECHCG [7] | percentage damage caused to the plant, IPOHE [8] | percentage damage caused to the plant, SETFA [9] | percentage damage caused to the plant, ZEAMX [10] | percentage damage caused to the plant, AMARE [11] | percentage damage caused to the plant, SOLNI [12] | percentage damage caused to the plant, LOLPE [13] | percentage damage caused to the plant, ABUTH [14] | percentage damage caused to the plant, LOLPE [15] | percentage damage caused to the plant, SOLNI [16] | percentage damage caused to the plant, AMAPA [17] | percentage damage caused to the plant, AMAPA [18]
1 | CCn1c(-c2ccc(Cl)c(Cl)c2)c(C(=O)O)c(=O)c2ccc(OC)cc21 [Compound 1, 2-(3,4-dichlorophenyl)-1-ethyl-7-methoxy-4-oxo-quinoline-3-carboxylic acid] | 3 (3=41-60%) | 2 (2=21-40%) | 2 (2=21-40%) | 1 (1=0-20%) | 1 (1=0-20%) | 0 | 1 (1=0-20%) | 3 (3=41-60%) | 2 (2=21-40%) | 0 |  |  |  |  |  |  |  | 
2 | CCn1c(-c2ccc(Cl)c(Cl)c2)c(C(=O)O)c(=O)c2c(C(F)(F)F)cccc21 [Compound 2, 2-(3,4-dichlorophenyl)-1-ethyl-4-oxo-5-(trifluoromethyl)quinoline-3-carboxylic acid] | 2 (2=21-40%) | 2 (2=21-40%) | 5 (5=81-100%) | 5 (5=81-100%) | 1 (1=0-20%) | 2 (2=21-40%) | 5 (5=81-100%) | 3 (3=41-60%) | 4 (4=61-80%) | 3 (3=41-60%) | 2 (2=21-40%) | 2 (2=21-40%) | 0 | 3 (3=41-60%) | 1 (1=0-20%) | 2 (2=21-40%) |  | 
3 | CCn1c(-c2ccc(Cl)c(Cl)c2)c(C(=O)O)c(=O)c2ccccc21 [Compound 3, 2-(3,4-dichlorophenyl)-1-ethyl-4-oxo-quinoline-3-carboxylic acid] | 1 (1=0-20%) | 3 (3=41-60%) | 5 (5=81-100%) | 5 (5=81-100%) | 3 (3=41-60%) | 3 (3=41-60%) | 3 (3=41-60%) | 4 (4=61-80%) | 4 (4=61-80%) | 1 (1=0-20%) | 2 (2=21-40%) | 4 (4=61-80%) | 3 (3=41-60%) | 2 (2=21-40%) | 2 (2=21-40%) | 4 (4=61-80%) |  | 
4 | CCn1c(-c2ccc(Cl)c(Cl)c2)c(C(=O)O)c(=O)c2cc(SC)ccc21 [Compound 11, 2-(3,4-dichlorophenyl)-1-ethyl-6-methylsulfanyl-4-oxo-quinoline-3-carboxylic acid] |  | 1 (1=0-20%) | 5 (5=81-100%) | 5 (5=81-100%) | 2 (2=21-40%) | 2 (2=21-40%) | 4 (4=61-80%) | 1 (1=0-20%) | 3 (3=41-60%) | 2 (2=21-40%) | 1 (1=0-20%) |  |  |  |  |  | 3 (3=41-60%) | 3 (3=41-60%)
5 | CCn1c(-c2ccc(Cl)c(Cl)c2)c(C(=O)O)c(=O)c2cc(S(C)(=O)=O)ccc21 [Compound 12, 2-(3,4-dichlorophenyl)-1-ethyl-6-methylsulfonyl-4-oxo-quinoline-3-carboxylic acid] |  | 1 (1=0-20%) | 5 (5=81-100%) | 5 (5=81-100%) | 1 (1=0-20%) | 3 (3=41-60%) | 4 (4=61-80%) | 2 (2=21-40%) | 3 (3=41-60%) | 1 (1=0-20%) | 3 (3=41-60%) |  |  |  |  |  | 3 (3=41-60%) | 2 (2=21-40%)
6 | CCn1c(-c2ccc(Cl)c(Cl)c2)c(C(=O)O)c(=O)c2cc(C)ccc21 [Compound 14, 2-(3,4-dichlorophenyl)-1-ethyl-6-methyl-4-oxo-quinoline-3-carboxylic acid] |  | 2 (2=21-40%) | 4 (4=61-80%) | 4 (4=61-80%) | 2 (2=21-40%) | 5 (5=81-100%) | 3 (3=41-60%) | 3 (3=41-60%) | 3 (3=41-60%) | 2 (2=21-40%) | 5 (5=81-100%) |  |  |  |  |  | 5 (5=81-100%) | 5 (5=81-100%)
7 | CCn1c(-c2ccc(Cl)c(Cl)c2)c(C(=O)O)c(=O)c2cc(OC)ccc21 [Compound 15, 2-(3,4-dichlorophenyl)-1-ethyl-6-methoxy-4-oxo-quinoline-3-carboxylic acid] |  | 2 (2=21-40%) | 5 (5=81-100%) | 4 (4=61-80%) | 1 (1=0-20%) | 2 (2=21-40%) | 3 (3=41-60%) | 2 (2=21-40%) | 2 (2=21-40%) | 1 (1=0-20%) | 3 (3=41-60%) |  |  |  |  |  | 3 (3=41-60%) | 2 (2=21-40%)
8 | CCn1c(-c2ccc(F)cc2)c(C(=O)O)c(=O)c2ccccc21 [Compound 18, 1-ethyl-2-(4-fluorophenyl)-4-oxo-quinoline-3-carboxylic acid] |  | 0 | 3 (3=41-60%) | 2 (2=21-40%) | 0 | 1 (1=0-20%) | 1 (1=0-20%) | 0 | 1 (1=0-20%) | 1 (1=0-20%) | 1 (1=0-20%) |  |  |  |  |  | 1 (1=0-20%) | 1 (1=0-20%)
